Data taken from article PMC9232612, “A phase 1b randomised controlled trial of a glucagon-like peptide-1 and glucagon receptor dual agonist IBI362 (LY3305677) in Chinese patients with type 2 diabetes” (Nature Communications, 2022).
Where “and” joins values, the source holds several entries; their conditions need not be identical. Identical values can stand only once.

How the values were obtained:
[1] = test system: Chinese patients with T2D; assay: Alanine aminotransferase and aspartate aminotransferase levels; type: in vivo, human
Text: Primary outcomes of the study were the safety and tolerability of IBI362. Safety assessment included adverse events, physical examinations, laboratory tests (including lipase, amylase and calcitonin level measures), vital signs and 12-lead electrocardiogram. Adverse events were categorized according to the Medical Dictionary for Regulatory Activities system organ classes (SOCs) and preferred terms. Treatment-emergent adverse events (TEAEs) were monitored from the time of informed consent to the safety follow-up period. The severity of TEAEs (mild, moderate or severe) and the association between an event and the study drug were assessed by investigators based on pre-specified criteria.
CFB in ALT (U/L), mean (SD)
CFB in AST (U/L), mean (SD)
Fig. S2: Change from baseline in ALT and AST levels over time.
a. CFB in ALT levels over time. b. CFB in AST levels over time. Data are plotted as means +/- SD.
ALT = alanine aminotransferase; AST = aspartate aminotransferase; CFB = change from baseline;
SD = standard deviation. Source data are provided as a Source Data file. […]

[2] = test system: Chinese patients with T2D; assay: Glycated haemoglobin A1c (HbA1c); type: in vivo, human
Protocol: HbA1c (2200101, Bio-Rad, USA), blood glucose (05168791190, Roche Diagnostics, Germany), insulin (12017547122, Roche Diagnostics, Germany), C peptide (03184897190, Roche Diagnostics, Germany), total GLP-1 (GLP-1 [7–36] amide and its metabolite, GLP-1 [9–36] amide, 10-1278-01, Mercodia AB, Sweden) and OXM (AL-139, AnshLabs, USA) tests were performed according to the manufactures’ instruction manuals in a central laboratory (KingMed Diagnostics, Guangzhou, China). HbA1c was measured using a Bio-rad D-100 Haemoglobin Testing System (Bio-rad). Blood glucose was measured using a Roche Cobas c702 analyser (Roche Diagnostics). Insulin and C peptide were measured using a Roche […] analyser (Roche Diagnostics). GLP-1 and OXM were measured using a Tecan Infinite M Plex microplate reader (TECAN).
Standard non-compartmental pharmacokinetics methods were used to analyze IBI362 plasma concentration data using Pkanalix 2020R1 (Lixoft, Antony, France). Secondary efficacy outcomes included change from baseline to week 12 in HbA1c, fasting plasma glucose (FPG), fasting insulin levels, change from baseline to week 12 in post-mixed-meal tolerance test (post-MTT) glucose, insulin, C peptide, GLP-1 and OXM levels, as well as seven-point self-measured blood glucose (SMBG) profile.
The analyses for change from baseline in HbA1c, FPG, post-MTT glucose AUC0–4 h and body weight were performed using the mixed-effect model for repeated measures (MMRM) with least-squares means and standard error provided. The MMRM included the corresponding baseline value, treatment, visit and treatment-by-visit as fixed effects and patient as a random effect. Mean change or mean percent change from baseline were analysed using a restricted maximum likelihood (REML)‐based repeated measures approach in combination with the Newton Raphson Algorithm. The fix effect of visit was fitted as a repeated effect and an unstructured covariance matrix was used. In case of non-converge, matrix like Variance Components and Compound Symmetry will be tested in a subsequent order until model‐convergence is achieved. The Kenward-Roger degree of freedom was used in estimating fixed effects. No missing data imputation was conducted. For HbA1c, FPG and body weight, point estimate of treatment difference versus placebo and 90% CI were provided for each IBI362 dose group and the dulaglutide group, with nominal p values.

[3] = each line a single patient, 3.0 mg cohort

CC(C)C[C@H](NC(=O)[C@H](CC(C)C)NC(=O)[C@H](Cc1c[nH]c2ccccc12)NC(=O)[C@H](CCC(=O)O)NC(=O)[C@@H](NC(=O)[C@H](Cc1ccccc1)NC(=O)[C@H](CCC(=O)O)NC(=O)[C@H](CCCCNC(=O)COCCOCCNC(=O)COCCOCCNC(=O)CC[C@H](NC(=O)CCCCCCCCCCCCCCCCCCC(=O)O)C(=O)O)NC(=O)[C@H](C)NC(=O)[C@H](CCCCN)NC(=O)[C@H](CCCCN)NC(=O)[C@H](CCC(=O)O)NC(=O)[C@H](CC(=O)O)NC(=O)[C@H](CC(C)C)NC(=O)[C@H](Cc1ccc(O)cc1)NC(=O)[C@H](CCCCN)NC(=O)[C@H](CO)NC(=O)[C@H](Cc1ccc(O)cc1)NC(=O)[C@H](CC(=O)O)NC(=O)[C@H](CO)NC(=O)[C@@H](NC(=O)[C@H](Cc1ccccc1)NC(=O)[C@@H](NC(=O)CNC(=O)[C@H](CCC(N)=O)NC(=O)C(C)(C)NC(=O)[C@@H](N)Cc1c[nH]cn1)[C@@H](C)O)[C@@H](C)O)C(C)C)C(=O)N[C@@H](CCC(=O)O)C(=O)NCC(=O)NCC(=O)N1CCC[C@H]1C(=O)N[C@@H](CO)C(=O)N[C@@H](CO)C(=O)NCC(N)=O [IBI362]
Change from baseline in ALT, mean ([1]; week 4, 3.0 mg cohort): 3.76 U/L
Change from baseline in AST, mean ([1]; week 4, 3.0 mg cohort): 1.13 U/L
Change from baseline in ALT, mean ([1]; week 4, 4.5 mg cohort): -3.50 U/L
Change from baseline in AST, mean ([1]; week 4, 4.5 mg cohort): -2.03 U/L
Change from baseline in ALT, mean ([1]; week 4, 6.0 mg cohort): -7.38 U/L
Change from baseline in AST, mean ([1]; week 4, 6.0 mg cohort): -2.56 U/L
Change from baseline in ALT, mean ([1]; week 8, 3.0 mg cohort): -6.34 U/L
Change from baseline in AST, mean ([1]; week 8, 3.0 mg cohort): -1.20 U/L
Change from baseline in ALT, mean ([1]; week 8, 4.5 mg cohort): -7.66 U/L
Change from baseline in AST, mean ([1]; week 8, 4.5 mg cohort): -1.26 U/L
Change from baseline in ALT, mean ([1]; week 8, 6.0 mg cohort): -8.50 U/L
Change from baseline in AST, mean ([1]; week 8, 6.0 mg cohort): -3.36 U/L
Change from baseline in ALT, mean ([1]; week 12, 3.0 mg cohort): -6.34 U/L
Change from baseline in AST, mean ([1]; week 12, 3.0 mg cohort): -2.49 U/L
Change from baseline in ALT, mean ([1]; week 12, 4.5 mg cohort): -10.66 U/L
Change from baseline in AST, mean ([1]; week 12, 4.5 mg cohort): -2.82 U/L
Change from baseline in ALT, mean ([1]; week 12, 6.0 mg cohort): -8.38 U/L
Change from baseline in AST, mean ([1]; week 12, 6.0 mg cohort): -4.65 U/L
Percent of patients with change from baseline to week 12 in HbA1c <1.0% ([2]; 3.0 mg cohort, n=8): 0.0%
Percent of patients with change from baseline to week 12 in HbA1c ≥1.0% and <1.5% ([2]; 3.0 mg cohort, n=8): 37.5%
Percent of patients with change from baseline to week 12 in HbA1c ≥1.5% and <2.0% ([2]; 3.0 mg cohort, n=8): 25.0%
Percent of patients with change from baseline to week 12 in HbA1c ≥2.0% ([2]; 3.0 mg cohort, n=8): 25.0%
Percent of patients with change from baseline to week 12 in HbA1c <1.0% ([2]; 4.5 mg cohort, n=8): 0.0%
Percent of patients with change from baseline to week 12 in HbA1c ≥1.0% and <1.5% ([2]; 4.5 mg cohort, n=8): 12.5%
Percent of patients with change from baseline to week 12 in HbA1c ≥1.5% and <2.0% ([2]; 4.5 mg cohort, n=8): 25.0%
Percent of patients with change from baseline to week 12 in HbA1c ≥2.0% ([2]; 4.5 mg cohort, n=8): 37.5%
Percent of patients with change from baseline to week 12 in HbA1c <1.0% ([2]; 6.0 mg cohort, n=8): 25.0%
Percent of patients with change from baseline to week 12 in HbA1c ≥1.0% and <1.5% ([2]; 6.0 mg cohort, n=8): 0.0%
Percent of patients with change from baseline to week 12 in HbA1c ≥1.5% and <2.0% ([2]; 6.0 mg cohort, n=8): 37.5%
Percent of patients with change from baseline to week 12 in HbA1c ≥2.0% ([2]; 6.0 mg cohort, n=8): 37.5%
Percent of patients with change from baseline to week 12 in HbA1c <1.0% ([2]; all IBI362 cohorts, n=24): 8.3%
Percent of patients with change from baseline to week 12 in HbA1c ≥1.0% and <1.5% ([2]; all IBI362 cohorts, n=24): 16.7%
Percent of patients with change from baseline to week 12 in HbA1c ≥1.5% and <2.0% ([2]; all IBI362 cohorts, n=24): 29.2%
Percent of patients with change from baseline to week 12 in HbA1c ≥2.0% ([2]; all IBI362 cohorts, n=24): 33.3%
Change from baseline to week 12 in HbA1c, single patients [2, 3]: -2.8% and -1.4% and -1.0% and -1.9% and -1.8% and -2.7% and -1.3%
HbA1c at week 12, single patients [2, 3]: 6.4% and 6.1% and 8.6% and 7.3% and 6.8% and 6.7% and 7.4%
